Reference: patent publication US20250221936A1, “ENGINEERED HEMICHANNELS, ENGINEERED VESICLES, AND USES THEREOF” (VIRGINIA TECH INTELLECTUAL PROPERTIES, INC., priority 2018, published 2025)
“Also recorded” adds a separate entry of the source.

Key:
ZO-1 PDZ2 = target: T1, ZO-1 PDZ2 (Homo sapiens, UniProt Q07157); experiment: Protein thermal shift assay, ZO-1 PDZ2; format: binding; settings: 500 μg/ml protein, 25-100 μM peptide
T1 construct: the second of the three PDZ (PDZ2) domains of ZO-1; made in house; host or cells: E. coli BL21
T1 sequence (Q07157 186-264 limits assumed): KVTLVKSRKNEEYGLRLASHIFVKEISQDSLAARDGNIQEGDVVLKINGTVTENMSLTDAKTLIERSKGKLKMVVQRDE
Procedure: Thermal stability of recombinant GST-PDZ2 or Cx43 CT in the presence or absence of peptides was determined in a 96-well format. Each assay well was composed of 500 μg/ml protein, 25-100 μM of each peptide in PBS buffer, pH7.4. All assays were performed independently six times. Samples were generally prepared in 96-well plates at final volumes of 20 μL. The fluorescent dye SYPRO Orange (5000× concentrate in DMSO, ThermoFisher, S6650) was added to a final concentration of 8X. Reactions were run on QuantStudio 6 Flex Real-Time PCR system (Applied Biosystems, part of Life Technologies Corporation, CA) according to the manufacturer's recommendations using a melt protocol in 0.05-degree/see increments from 25° C. to 95° C. The Reporter Dye was “ROX” and quencher Dye and passive reference were selected as “None” for the melt curve according to manufacturer's instructions. The data were analyzed using Protein Thermal Shift™ Software v1.3 package (Applied Biosystems, CA).

adult mouse hearts = experiment: Langendorff ischemia-reperfusion (I/R) injury, LV contractility; settings: for recovery of LV contractile performance during reperfusion: pre-ischemic 20-minute peptide infusion, 20 min ischemia, 40 min reperfusion
Procedure: Male, 3-month-old, body weight 25±5 g C57BL/6 mice were used for this study and obtained from Charles River. Animals were randomly assigned to experimental groups and Left ventricular (LV) function was measured and myocardial ischemia-reperfusion injury (I/R) was induced as previously described^23. Briefly, 15 minutes after the injection of heparin at a dose of 200U/10 g body weight, the mouse was anesthetized by inhalation of isoflurane vapor and subjected to cervical dislocation upon the cessation of respiration. Thoracotomy was immediately performed and the heart excised. The heart was arrested in ice-cold Krebs-Henseleit (KH) buffer (in mM: 25 NaHCO3, 0.5 EDTA, 5.3 KCl, 1.2 MgSO4, 0.5 pyruvate, 118 NaCl, 10 glucose, 2.5 CaCl2). The aorta was isolated and cannulated in a Langendorff perfusion system. The heart was then perfused at a constant pressure of 75 mmHg with KH buffer, which was continually bubbled with 5% CO2/95% O2 at 37° C. Effluent from the Thebesian veins was drained by a thin polyethylene tube (PE-10) pierced through the apex of the LV. A water-filled balloon made of polyvinylchloride film was inserted in the LV and connected to a blood pressure transducer (Harvard Apparatus, 733866, MA). After a 30-minute stabilization period, a balloon volume (BV) generating an LV end-diastolic-pressure (EDP) of 0 mmHg, was determined for the heart. The BV was then increased stepwise up through 1, 2, 5, 8, 10, 12, 15, 18, 20, 25, 30 μl increments of 1-5 μl and contractile performance were recorded for 10 seconds at each step. The indexes of cardiac function were amplified by a Transducer Amplifier Module (Harvard Apparatus, 730065, MA). Data was recorded and analyzed using PowerLab 4/35 (ADInstruments, PL3504, CO) and LabChart V7 (ADInstruments, CO). The BV was then adjusted to set EDP at about 8-10 mmHg and held constant during the ensuing steps of the protocol. Baseline function (determined by EDP at about 8-10 mmHg) was recorded for 5 minutes. The perfused beating heart were then treated with freshly prepared peptide stocks (0.2 mM), which were infused using syringe pump (Kent Sci, CT) into the perfusion buffer in a mixing chamber above the heart at 5% of coronary flow rate, to deliver final concentrations of 10-50 μM or equivalent vehicle for 20 minutes. At the end of the peptide infusion period hearts were subjected to global, no-flow normothermic ischemia by turning off the perfusion flow for 20 min, followed by a reperfusion phase for 40 min. BV was retaken through the stepwise sequence of 1-5 μl increments between 1 and 30 μl, with contractile performance again being recorded for 10 seconds at each step. Cardiac LV function was recorded throughout the procedure. In the case of post-ischemic treatment with alpha CT11 peptide, peptide infusion was begun at the initiation of the reperfusion phase, continued for 20 minutes and then contractile function by BV increments was taken as per the other hearts. A set of hearts were freeze-clamped immediately after peptide infusion for Western blotting. The protocol is illustrated in FIG. 9.

| Sequence | PDZ2 melt temperature (Tm) (ZO-1 PDZ2) | recovery of LV contractile performance during reperfusion (adult mouse hearts) | PDZ2 melt temperature (Tm) (ZO-1 PDZ2; listed as M3) | recovery of LV function (adult mouse hearts; 20-minute peptide infusion at initiation of reperfusion (post-ischemic)) | cardiac muscle loss (adult mouse hearts; ex vivo I/R injury) |
| --- | --- | --- | --- | --- | --- |
| RQPKIWFPNRRKPWKK RPRPAALAI (RQPKIWFPNRRKPWKKRPRPAALAI) [M1 AALAI] | did not alter the melt temperature of PDZ2 | no ability to improve recovery |  |  |  |
| RQPKIWFPNRRKPWKKRPRPDDLAI [M3 DDLAI] | evidence of significant interaction with its ZO-1-binding domain | no ability to improve recovery | significantly increase the Tm of |  |  |
| RQPKIWFPNRRKPWKKRPRPDDLE [alpha CT1-I] | PDZ2 interaction incompetent | significant functional recovery after I/R injury |  |  |  |
| RQPKIWFPNRRKPWKKRPRPDDLEI [alpha CT1] | significantly increase the Tm of; also recorded: increased the melt temperature of PDZ2 in a dose-dependent manner | notable recovery of LV function during reperfusion; also recorded: significant functional recovery after I/R injury |  | did not result in significant recovery of LV function | reduce cardiac muscle loss by more than half |
